# Like-named read-outs stand apart in the source and are kept apart here.
# Tests used:
# [1] = Stability of analytes in rat plasma QC samples (auto-sampler, freeze-thaw, short-time, long-term); format: in vitro ADME
# Protocol: (§1) The stabilities (including auto-sampler, freeze–thaw cycles, and short-time and long-term stability) of all analytes were obtained by testing QC samples of four concentrations. Moreover, the stabilities for stock and working solution were assessed with mixed standard substance (100 ng·ml^−1) and the QC sample solutions of four concentration levels, respectively. These solutions were achieved by diluting stock solutions kept at 4°C for 2 weeks. For IS, the evaluated procedures of two stabilities were same as the five alkaloids.
# [2] = Pharmacokinetics of five alkaloids in rat plasma after oral administration of lotus leaf extract; format: in vivo, Male Sprague-Dawley rats
# Protocol: All analyses were performed on Agilent 1200 HPLC system (Agilent Corporation, USA) and API 3200 triple-quadrupole mass spectrometer (Concord, Ontario, Canada) in multiple-reaction monitoring (MRM) with positive ionization mode. Acetonitrile (A) and formic acid aqueous solution (B) (0.1%, v/v) is used to separate the analytes on Eclipse plus C18 column (4.6 mm × 100 mm, 1.8 µm) with a guard C18 column (2.1 mm × 12.5 mm, 5 µm). The gradient of elution is as follows: 5%–60% A at 0 to 4 min, 60%–70% A at 4 to 5 min, 70%–93% A at 5 to 7 min, 93%–94% A at 7 to 11 min, 94%–5% A at 11 to 12 min, and 5%–5% A at 12 to 17 min. The flow rate and injection volume are 0.3 ml·min^-1 and 5 µl, respectively. The main parameters of ion source including the ion spray voltage, the curtain gas, and temperature are set at 5000 V, 35 psi, and 450°C, respectively.
# The real plasma sample (100 µl) and IS solution (10 µl) were vortex-mixed for 1 min. The sample was carried out with the SPE column (Cleanert PEP-2, 40–60 µm, 60 Å, 10 mg/1 ml; Phenomenex, Torrance, CA, USA). First, SPE columns were activated by 50% methanol in water (1 ml) and 0.1% formic acid in water (1 ml) and were used to activate the SPE column in sequence. Second, columns were washed with 200 µl methanol (20%, v/v) and eluted with acetonitrile (400 µl) after the plasma samples were added. Finally, the eluent was centrifuged for 10 min with 14,000 rpm. Then final solutions were injected into the HPLC-MS/MS and analyzed.
# The pharmacokinetic study was conducted in accordance with the Guidelines for the Care and Use of Laboratory Animals by the US National Institutes of Health and approved by the Animal Ethics Committee of Tianjin University of Traditional Chinese Medicine (permit number: TCM-LAEC2019022, Tianjin, China),. Male Sprague-Dawley rats (240–260 g) were fed in the animal laboratory of the Tianjin University of Traditional Chinese Medicine under the standard conditions. These rats were allowed free to get standard laboratory food and water and conformed for 1 week until 12 h before experiment. These rats (n = 10) were fasted, although they were still given water for 12 h, before the oral administration of lotus leaf extract. […] The plasma samples were centrifuged in 10 min at 7000 rpm and kept at −20°C until analyzed.
# All of the pharmacokinetic parameters were calculated by one compartment model with DAS 1.0 software (Medical College of Wannan). The maximum drug concentration (Cmax) and the time to reach Cmax (Tmax) were acquired from observed concentration–time profile for oral administration in plasma. All data were shown as mean ± SD.
# [3] = Stability of stock and working solutions; format: physicochemical; conditions: for Remain, working solution: n = 6
# Protocol: as §1
# [4] = male, Sprague-Dawley, rat, in vivo, po, 2.4 g/kg
# [5] = concentration LLOQ, from stock kept at 4°C for 2 weeks
# [6] = rat plasma QC, autosampler 24 h, LLOQ, n = 6
# [7] = rat plasma QC, freeze thaw cycles, LLOQ, n = 6
# [8] = rat plasma QC, room temperature 24 h, LLOQ, n = 6
# [9] = rat plasma QC, −80°C 1 month, LLOQ, n = 6
# [10] = male, Sprague-Dawley, rat, in vivo, po, 2.4 g/kg, rat plasma, oral lotus leaf extract 2.4 g·kg^−1, n = 10, mean ± SD, read-out: MRT(0–tn)
# [11] = male, Sprague-Dawley, rat, in vivo, po, 2.4 g/kg, rat plasma, oral lotus leaf extract 2.4 g·kg^−1, n = 10, mean ± SD, read-out: MRT(0–∞)
# [12] = male, Sprague-Dawley, rat, in vivo, po, 2.4 g/kg, rat plasma, oral lotus leaf extract 2.4 g·kg^−1, n = 10, mean ± SD, read-out: Tmax
# [13] = male, Sprague-Dawley, rat, in vivo, po, 2.4 g/kg, rat plasma, oral lotus leaf extract 2.4 g·kg^−1, n = 10, one compartment model, mean ± SD, read-out: T1/2 (converted)
# [14] = rat, oral lotus leaf extract 2.4 g·kg^−1
# [15] = rat plasma, oral lotus leaf extract 2.4 g·kg^−1, n = 10, mean ± SD
smiles,measurement,setting,value
"COc1cc2c(cc1OC)C(Cc1ccc(O)cc1)N(C)CC2 (stereo not drawn) [Armepavine, armepavine]","Remain, freeze thaw cycles","[1]; rat, plasma",103%
same,"Remain, freeze thaw cycles","[1]; rat, plasma, 1 ng/ml",107%
same,"Remain, freeze thaw cycles","[1]; rat, plasma, 20 ng/ml",111%
same,"Remain, freeze thaw cycles","[1]; rat, plasma, 100 ng/ml",85.2%
same,"Remain, −80°C for 1 month","[1]; rat, plasma, 1 month",109%
same,"Remain, −80°C for 1 month","[1]; rat, plasma, 1 month, 1 ng/ml",107%
same,"Remain, −80°C for 1 month","[1]; rat, plasma, 1 month, 20 ng/ml",113%
same,"Remain, −80°C for 1 month","[1]; rat, plasma, 1 month, 100 ng/ml",107%
same,"Remain, autosampler for 24 h","[1]; rat, plasma, 24 h",87.6%
same,"Remain, room temperature for 24 h","[1]; rat, plasma, 24 h",91.5%
same,"Remain, autosampler for 24 h","[1]; rat, plasma, 24 h, 1 ng/ml",90.8%
same,"Remain, room temperature for 24 h","[1]; rat, plasma, 24 h, 1 ng/ml",104%
same,"Remain, autosampler for 24 h","[1]; rat, plasma, 24 h, 20 ng/ml",114%
same,"Remain, room temperature for 24 h","[1]; rat, plasma, 24 h, 20 ng/ml",118%
same,"Remain, autosampler for 24 h","[1]; rat, plasma, 24 h, 100 ng/ml",87.4%
same,"Remain, room temperature for 24 h","[1]; rat, plasma, 24 h, 100 ng/ml",110%
same,AUC,[2]; [4],0.0286 ± 0.0165 µg·h/mL
same,AUC(0-inf),[2]; [4],0.0538 ± 0.0347 µg·h/mL
same,Cmax,[2]; [4],0.00878 ± 0.00778 µg/mL
same,MRT,[2]; [4],7.23 ± 1.93 h
same,MRT inf,[2]; [4],31.9 ± 25.9 h
same,Tmax,[2]; [4],0.3 ± 0.11 h
same,half-life,[2]; [4],5.22 ± 5.09 h
same,Absorption after orally administrating the lotus leaf extract (in words),"[2]; rat, in vivo, po",fast absorption
same,"Remain, working solution",[3]; 1 ng/ml,98.8%
same,"Remain, working solution",[3]; 20 ng/ml,95.8%
same,"Remain, working solution",[3]; 100 ng/ml,101%
same,"Remain, working solution",[3]; [5],96.3%
"COc1cc2c(cc1OC)-c1cc3ccc(OC)c(OC)c3c[n+]1CC2 [IS, palmatine chloride, reference compound]","Remain, stock solution",[3]; stock solution kept at 4°C for 2 weeks,114%
"O=C1c2ccccc2-c2c3c(cc4ccnc1c24)OCO3 [Liriodenine, liriodenine]","Remain, autosampler for 24 h","[1]; rat plasma QC, autosampler 24 h, 1 ng/ml, n = 6",86.0%
same,"Remain, autosampler for 24 h","[1]; rat plasma QC, autosampler 24 h, 40 ng/ml, n = 6",105%
same,"Remain, autosampler for 24 h","[1]; rat plasma QC, autosampler 24 h, 200 ng/ml, n = 6",96.8%
same,"Remain, autosampler for 24 h",[1]; [6],95.7%
same,"Remain, freeze thaw cycles","[1]; rat plasma QC, freeze thaw cycles, 1 ng/ml, n = 6",86.9%
same,"Remain, freeze thaw cycles","[1]; rat plasma QC, freeze thaw cycles, 40 ng/ml, n = 6",92.7%
same,"Remain, freeze thaw cycles","[1]; rat plasma QC, freeze thaw cycles, 200 ng/ml, n = 6",90.5%
same,"Remain, freeze thaw cycles",[1]; [7],91.7%
same,"Remain, room temperature for 24 h","[1]; rat plasma QC, room temperature 24 h, 1 ng/ml, n = 6",87.9%
same,"Remain, room temperature for 24 h","[1]; rat plasma QC, room temperature 24 h, 40 ng/ml, n = 6",96.9%
same,"Remain, room temperature for 24 h","[1]; rat plasma QC, room temperature 24 h, 200 ng/ml, n = 6",102%
same,"Remain, room temperature for 24 h",[1]; [8],92.9%
same,"Remain, −80°C for 1 month","[1]; rat plasma QC, −80°C 1 month, 1 ng/ml, n = 6",107%
same,"Remain, −80°C for 1 month","[1]; rat plasma QC, −80°C 1 month, 40 ng/ml, n = 6",105%
same,"Remain, −80°C for 1 month","[1]; rat plasma QC, −80°C 1 month, 200 ng/ml, n = 6",104%
same,"Remain, −80°C for 1 month",[1]; [9],98.9%
same,AUC,"[2]; male, Sprague-Dawley, rat, in vivo, po, 2.4 g/kg, rat plasma, oral lotus leaf extract 2.4 g·kg^−1, n = 10, mean ± SD, read-out: AUC(0–tn)",0.415 ± 0.2 µg·h/mL
same,AUC(0-inf),"[2]; male, Sprague-Dawley, rat, in vivo, po, 2.4 g/kg, rat plasma, oral lotus leaf extract 2.4 g·kg^−1, n = 10, mean ± SD, read-out: AUC(0–∞)",0.429 ± 0.199 µg·h/mL
same,Cmax,"[2]; male, Sprague-Dawley, rat, in vivo, po, 2.4 g/kg, rat plasma, oral lotus leaf extract 2.4 g·kg^−1, n = 10, mean ± SD, read-out: Cmax",0.0547 ± 0.0318 µg/mL
same,MRT,[2]; [10],7.11 ± 1.21 h
same,MRT inf,[2]; [11],8.17 ± 1.86 h
same,Tmax,[2]; [12],5.7 ± 2.83 h
same,half-life,[2]; [13],3.77 ± 1.15 h
same,Absorption after orally administrating the lotus leaf extract (in words),[2]; [14],slow absorption
same,"Remain, working solution",[3]; 1 ng/ml,96.9%
same,"Remain, working solution",[3]; 40 ng/ml,91.7%
same,"Remain, working solution",[3]; 200 ng/ml,112%
same,"Remain, working solution",[3]; [5],105%
"COc1cc2c3c(c1OC)-c1ccccc1C[C@H]3N(C)CC2 [Nunciferine, nunciferine]","Remain, autosampler for 24 h","[1]; rat plasma QC, autosampler 24 h, 2 ng/ml, n = 6",89.7%
same,"Remain, autosampler for 24 h","[1]; rat plasma QC, autosampler 24 h, 100 ng/ml, n = 6",98.4%
same,"Remain, autosampler for 24 h","[1]; rat plasma QC, autosampler 24 h, 500 ng/ml, n = 6",85.4%
same,"Remain, autosampler for 24 h",[1]; [6],87.5%
same,"Remain, freeze thaw cycles","[1]; rat plasma QC, freeze thaw cycles, 2 ng/ml, n = 6",92.5%
same,"Remain, freeze thaw cycles","[1]; rat plasma QC, freeze thaw cycles, 100 ng/ml, n = 6",92.0%
same,"Remain, freeze thaw cycles","[1]; rat plasma QC, freeze thaw cycles, 500 ng/ml, n = 6",85.3%
same,"Remain, freeze thaw cycles",[1]; [7],95.9%
same,"Remain, room temperature for 24 h","[1]; rat plasma QC, room temperature 24 h, 2 ng/ml, n = 6",96.5%
same,"Remain, room temperature for 24 h","[1]; rat plasma QC, room temperature 24 h, 100 ng/ml, n = 6",109%
same,"Remain, room temperature for 24 h","[1]; rat plasma QC, room temperature 24 h, 500 ng/ml, n = 6",89.3%
same,"Remain, room temperature for 24 h",[1]; [8],94.4%
same,"Remain, −80°C for 1 month","[1]; rat plasma QC, −80°C 1 month, 2 ng/ml, n = 6",96.3%
same,"Remain, −80°C for 1 month","[1]; rat plasma QC, −80°C 1 month, 100 ng/ml, n = 6",100%
same,"Remain, −80°C for 1 month","[1]; rat plasma QC, −80°C 1 month, 500 ng/ml, n = 6",91.4%
same,"Remain, −80°C for 1 month",[1]; [9],99.4%
same,MRT,[2]; [10],5.49 ± 0.96 h
same,MRT inf,[2]; [11],6.14 ± 1.47 h
same,Tmax,[2]; [12],3.5 ± 1.84 h
same,half-life,[2]; [13],6.18 ± 3.1 h
same,AUCs(0–24 h),"[2]; rat plasma, oral lotus leaf extract 2.4 g·kg^−1",2.07 ± 0.919 µg·h/mL
same,AUC(0–tn),[2]; [15],2.069 ± 0.919 µg·h/mL
same,AUC(0–∞),[2]; [15],2.142 ± 0.961 µg·h/mL
same,Cmax,[2]; [15],0.31758 ± 0.17505 µg/mL
same,Cmax,"[2]; rat plasma, oral lotus leaf extract 2.4 g·kg^−1, n = 10, mean ± SD, listed as nunciferine",0.3176 ± 0.1751 µg/mL
same,Plasma exposure (in words),[2]; [14],abundant plasma exposure
same,"Remain, working solution",[3]; 2 ng/ml,92.5%
same,"Remain, working solution",[3]; 100 ng/ml,98.7%
same,"Remain, working solution",[3]; 500 ng/ml,108%
same,"Remain, working solution",[3]; [5],101%

# From publication PMC6817585, “Simultaneous Determination of Five Alkaloids by HPLC-MS/MS Combined With Micro-SPE in Rat Plasma and Its Application to Pharmacokinetics After Oral Administration of Lotus Leaf Extract” (Frontiers in Pharmacology, 2019)
